The test system of this data set is Melanocytes (B16 cell line). In words: Melanogenesis Inhibition Assay. It counts as cell-based. Particulars: for Protein level (rate of cellular proteins) / Melanin level: B16 melanocytes, 3 days incubation, mean +/− SEM; for Protein level (rate of cellular proteins): Bradford's method; for Melanin level: optical density at 475 nm. The method, then:
Melanocytes (B16 cell line) were inoculated in standard medium of cell culture with foetal calf serum (FCS). After an incubation of 3 days at 37° C. under 5% CO2, growth medium was exchanged for standard medium with a range of concentrations for each compound to be tested and a control without ingredient. After an incubation of 3 days, the level of melanin was measured by recording the optical density at 475 nm. After washing the cells with a balanced salt buffer, and homogenisation in a solution of 0.1 M NaOH, the number of viable cells was determined by evaluation of the level of cellular proteins (Bradford's method).
The results are expressed in % against control (cell culture medium without compound) as a mean+/−SEM (Standard Error of Mean) on 2 or 3 assays, each in triplicate.

Each structure is given as a SMILES string.

As to `CCOC(=O)/C(=C/c1cc(OC)c(O)c(OC)c1)C(C)=O` [example 2], the “Protein level (rate of cellular proteins)” value (shortened to “Protein level”) (dose 0.001 % (w/v)) was 110 +/− 10 %/control and the “Protein level” value (dose 0.003 % (w/v)) was 123 +/− 9 %/control. For the same compound, the Melanin level reads like this: (dose 0.001 % (w/v)) 108 +/− 3 %/control; (dose 0.003 % (w/v)) 54 +/− 6 %/control. Moreover, the cell toxicity result (summary in words of Table 3) is “without cell toxicity”.

For `COc1cc(/C=C/C(=O)O)cc(OC)c1OC(C)=O` [example 1, 3,5-dimethoxy-4-acetoxy-cinnamic acid], the “Protein level” value (dose 0.0003 % (w/v)) is reported as 100 +/− 1 %/control, the “Protein level” value (dose 0.001 % (w/v)) is given as 95 +/− 1 %/control, the “Protein level” value (dose 0.003 % (w/v)) is given as 93 +/− 3 %/control and the “Protein level” value (dose 0.01 % (w/v)) was 81 +/− 10 %/control. Besides, the Melanin level (dose 0.0003 % (w/v)) is on record as 86 +/− 2 %/control, the Melanin level (dose 0.001 % (w/v)) is 67 +/− 2 %/control, the Melanin level (dose 0.003 % (w/v)) is given as 26 +/− 1 %/control and the Melanin level (dose 0.01 % (w/v)) is on record as 19 +/− 2 %/control. Further, the cell toxicity entry (summary in words of Table 3) is on record as “without cell toxicity”. In addition, the “rate of melanin synthesis in melanocytes” value (summary in words of Table 3) is given as “decreased”.

Source of the values: US8580775B2, “Use of derivatives of sinapinic acid and compositions comprising such derivatives” (Cognis IP Management GmbH, priority 2007, dated 2013).
